Molecular target: T1, TvNlpC_B3 (Trichomonas vaginalis, UniProt A2FQ38)
T1 construct: gene TVAG_042760; N-terminal His6-3C tag cleaved; E. coli BL21(DE3), pET47b; model Asn23-Tyr137; catalytic Cys53/His99/His111; no SH3 domain; E64 adduct 14,046 Da
Experiment: X-ray crystal structure of complex; mass spectrometry of covalent adduct
Type: binding
Settings: covalent at Cys53 via C2; at least 5:1 molar ratio, 1 h, room temperature; only a 131 Da fragment of E64 modelled, intact adduct seen by mass spectrometry

SMILES: CC(C)C[C@H](NC(=O)[C@H]1O[C@@H]1C(=O)O)C(=O)NCCCCNC(=N)N [E64]
- X-ray crystal structure of complex; mass spectrometry of covalent adduct: The structure of TvNlpC_B3 bound to the inhibitor E64 was determined by molecular replacement

— PMC10461829, “NlpC/P60 peptidoglycan hydrolases of Trichomonas vaginalis have complementary activities that empower the protozoan to control host-protective lactobacilli” (PLOS Pathogens, 2023)
